Test results reported in patent publication US11000033B2, “Ketone or oxime compound, and herbicide” (NISSAN CHEMICAL CORPORATION, priority 2014, dated 2021).

Tests used:
Format in all cases: in vivo
[1] = test system: Echinochloa oryzacola Vasing.; assay: Test Example 2: herbicidal activity, application during weed generation in submerged conditions (symbol A); details: Table 23; application herbicide amount 320 g/ha; grade 0-5 by criteria of Test Example 1
Summary of the method: (§1)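 Flooded-soil post-emergence test: emulsion of compound, water-diluted to target rate, applied to paddy water surface at 1–2 leaf stage of mixed-sown weeds (alluvial soil, 4 cm water, 25–30° C. greenhouse); visual rating 3 weeks after application.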

Scirpus juncoides = assay: Test Example 2: herbicidal activity, application during weed generation in submerged conditions (symbol B); details: Table 23; application herbicide amount 320 g/ha; grade 0-5 by criteria of Test Example 1
Summary of the method: as §1

[2] = test system: Echinochloa crus-galli var. crus-galli; assay: Test Example 3: herbicidal effect by foliage application, Wagner pot (symbol H); details: application herbicide amount 320 g/ha, Table 24
Summary of the method: (§2)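 Rating at 3 weeks post-spray, by defined criteria. Treatment: emulsion diluted with water to a predetermined amount, applied evenly to foliage of 14-day-old plants raised in alluvial soil flooded 0.1–0.5 cm deep at 25–30 °C, rice co-sown.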

Cyperus difformis = assay: Test Example 3: herbicidal effect by foliage application, Wagner pot (symbol E); details: application herbicide amount 320 g/ha, Table 24
Summary of the method: as §2

[3] = test system: Echinochloa crus-galli var. crus-galli; assay: Test Example 4: herbicidal effect by soil treatment (symbol H); details: application herbicide amount 320 g/ha
Summary of the method: (§3)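 Seeds were sown in sterilized diluvial soil, covered with about 1.5 cm of soil, and the soil surface was sprayed with a water-diluted emulsion of the compound at a predetermined rate. Plants grew in a greenhouse at 25° C. to 30° C.; effects were scored visually 3 weeks after application.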

Alopecurus myosuroides = assay: Test Example 4: herbicidal effect by soil treatment (symbol J); details: application herbicide amount 320 g/ha
Summary of the method: as §3

Lolium multiflorum Lam. = assay: Test Example 4: herbicidal effect by soil treatment (symbol K); details: application herbicide amount 320 g/ha
Summary of the method: as §3

Amaranthus retroflexus [4] = assay: Test Example 4: herbicidal effect by soil treatment (symbol N); details: application herbicide amount 320 g/ha
Summary of the method: as §3

soybean = assay: Test Example 4: effect on crop by soil treatment (symbol d); details: application herbicide amount 320 g/ha
Summary of the method: (§4)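 Greenhouse culture at 25° C. to 30° C. followed sowing of seed in spots on sterilized diluvial soil with a soil cover close to 1.5 cm thick.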

wheat = assay: Test Example 4: effect on crop by soil treatment (symbol e); details: application herbicide amount 320 g/ha
Summary of the method: as §4

beet [5] = assay: Test Example 4: effect on crop by soil treatment (symbol f); details: application herbicide amount 320 g/ha
Summary of the method: as §4

Setaria viridis = assay: Test Example 5: herbicidal effect by foliage application, plastic box (symbol G); details: 320 g/ha, 3 weeks after application
Summary of the method: (§5)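 Sowing in sterilized diluvial soil, 14 days' greenhouse growth at 25° C. to 30° C., then uniform small-sprayer foliar application of aqueous emulsion dilution; plants scored three weeks afterwards.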

Abutilon theophrasti = assay: Test Example 5: herbicidal effect by foliage application, plastic box (symbol M); details: 320 g/ha, 3 weeks after application
Summary of the method: as §5

Amaranthus retroflexus [6] = assay: Test Example 5: herbicidal effect by foliage application, plastic box (symbol N); details: 320 g/ha, 3 weeks after application
Summary of the method: as §5

Chenopodium album = assay: Test Example 5: herbicidal effect by foliage application, plastic box (symbol O); details: 320 g/ha, 3 weeks after application
Summary of the method: as §5

Stellaria media = assay: Test Example 5: herbicidal effect by foliage application, plastic box (symbol P); details: 320 g/ha, 3 weeks after application
Summary of the method: as §5

Veronica persica = assay: Test Example 5: herbicidal effect by foliage application, plastic box (symbol R); details: 320 g/ha, 3 weeks after application
Summary of the method: as §5

rice plant = assay: Test Example 5: effect on crop by foliage application, plastic box (symbol b); details: 320 g/ha, 3 weeks after application
Summary of the method: (§6)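 Diluvial soil, sterilized and boxed (21 × 13 × 7 cm), received spot-sown seed covered by about 1.5 cm soil; plants were then greenhouse-grown at 25–30° C.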

beet [7] = assay: Test Example 5: effect on crop by foliage application, plastic box (symbol f); details: 320 g/ha, 3 weeks after application
Summary of the method: as §6

Row | SMILES | Herbicidal effect grade, A: Echinochloa oryzacola Vasing. [1] | Herbicidal effect grade, B: Scirpus juncoides (Scirpus juncoides) | H (Echinochloa crus-galli var. crus-galli) herbicidal effect grade [2] | E herbicidal effect grade (Cyperus difformis) | Herbicidal effect grade, H: Echinochloa crus-galli var. crus-galli [3] | Herbicidal effect grade, J: Alopecurus myosuroides (Alopecurus myosuroides) | Herbicidal effect grade, K: Lolium multiflorum Lam. (Lolium multiflorum Lam.) | Herbicidal effect grade, N: Amaranthus retroflexus (Amaranthus retroflexus [4]) | Effect on crop grade, d: soybean (soybean) | Effect on crop grade, e: wheat (wheat) | Effect on crop grade, f: beet (beet [5]) | G: Setaria viridis, herbicidal effect grade (Setaria viridis) | M: Abutilon theophrasti, herbicidal effect grade (Abutilon theophrasti) | N: Amaranthus retroflexus, herbicidal effect grade (Amaranthus retroflexus [6]) | O: Chenopodium album, herbicidal effect grade (Chenopodium album) | P: Stellaria media, herbicidal effect grade (Stellaria media) | R: Veronica persica, herbicidal effect grade (Veronica persica) | b: directly sowed rice plant, effect on crop grade (rice plant) | f: beet, effect on crop grade (beet [7])
1 | COCCON=C(CC1CC(O)=C(c2c(C)cc(Br)cc2C)C1=O)C1CC1 (centres unmarked) [9-019] | 3 (Herbicidal ratio of 40% or higher and lower than 70%) | 0 (Herbicidal ratio of 5% or lower (almost no effect)) | 5 (Herbicidal ratio of 90% or more (almost completely withered)) | 4 (Herbicidal ratio of 70% or higher and lower than 90%) | 0 (Herbicidal ratio of 5% or lower (almost no effect)) | 5 (Herbicidal ratio of 90% or more (almost completely withered)) | 3 (Herbicidal ratio of 40% or higher and lower than 70%) | 0 (Herbicidal ratio of 5% or lower (almost no effect)) | 0 (Herbicidal ratio of 5% or lower (almost no effect)) | 0 (Herbicidal ratio of 5% or lower (almost no effect)) | 0 (Herbicidal ratio of 5% or lower (almost no effect)) | 5 (Herbicidal ratio of 90% or more (almost completely withered)) | 0 (Herbicidal ratio of 5% or lower (almost no effect)) | 0 (Herbicidal ratio of 5% or lower (almost no effect)) | 0 (Herbicidal ratio of 5% or lower (almost no effect)) | 0 (Herbicidal ratio of 5% or lower (almost no effect)) | 0 (Herbicidal ratio of 5% or lower (almost no effect)) | 3 (Herbicidal ratio of 40% or higher and lower than 70%) | 0 (Herbicidal ratio of 5% or lower (almost no effect))
2 | COCCON=C(CC1CC(O)=C(c2c(C)cc(-n3cc(Cl)cn3)cc2C)C1=O)C1CC1 (centres unmarked) [9-020] | 4 (Herbicidal ratio of 70% or higher and lower than 90%) | 4 (Herbicidal ratio of 70% or higher and lower than 90%) | 5 (Herbicidal ratio of 90% or more (almost completely withered)) | 5 (Herbicidal ratio of 90% or more (almost completely withered)) | 0 (Herbicidal ratio of 5% or lower (almost no effect)) | 3 (Herbicidal ratio of 40% or higher and lower than 70%) | 5 (Herbicidal ratio of 90% or more (almost completely withered)) | 0 (Herbicidal ratio of 5% or lower (almost no effect)) | 0 (Herbicidal ratio of 5% or lower (almost no effect)) | 0 (Herbicidal ratio of 5% or lower (almost no effect)) | 0 (Herbicidal ratio of 5% or lower (almost no effect)) | 5 (Herbicidal ratio of 90% or more (almost completely withered)) | 4 (Herbicidal ratio of 70% or higher and lower than 90%) | 5 (Herbicidal ratio of 90% or more (almost completely withered)) | 3 (Herbicidal ratio of 40% or higher and lower than 70%) | 3 (Herbicidal ratio of 40% or higher and lower than 70%) | 3 (Herbicidal ratio of 40% or higher and lower than 70%) | 5 (Herbicidal ratio of 90% or more (almost completely withered)) | 0 (Herbicidal ratio of 5% or lower (almost no effect))
